# Like-named read-outs stand apart in the source and are kept apart here.
# Key:
# [1] = system: M. tb mc^26230-Rv0183; test: microbe, parasite or virus in culture; assay type: cell-based, Mycobacterium tuberculosis
# [2] = system: M. tb mc^26230-Ag85A; test: microbe, parasite or virus in culture; assay type: cell-based, Mycobacterium tuberculosis
# [3] = system: M. tb mc^26230-LipH; test: microbe, parasite or virus in culture; assay type: cell-based, Mycobacterium tuberculosis; conditions: for MIC50: REMA
# [4] = system: M. tb mc^26230-HsaD; test: microbe, parasite or virus in culture; assay type: cell-based, Mycobacterium tuberculosis; conditions: for MIC50: REMA
# [5] = system: M. tb mc^26230-Ag85C; test: microbe, parasite or virus in culture; assay type: cell-based, Mycobacterium tuberculosis
# [6] = system: M. tb mc^26230-TesA; test: microbe, parasite or virus in culture; assay type: cell-based, Mycobacterium tuberculosis
# [7] = system: M. tb mc^26230 WT; test: microbe, parasite or virus in culture; assay type: cell-based
# [8] = system: M. tb mc^26230-empty vector; test: REMA, empty vector strain; assay type: cell-based, Mycobacterium tuberculosis
# [9] = Mycobacterium tuberculosis, REMA
smiles,measurement,setting,value
CCCCCCCCCCCCCCCCOP1(=O)OCCC(C(=O)OC)=C(C)O1 (stereo not drawn) [CyC 17],MIC50 ratio mutant/WT,[1]; M. tb mc^26230-Rv0183,0.80
same,MIC50,"[1]; Mycobacterium tuberculosis, M. tb mc^26230-Rv0183, REMA",0.44 ± 0.013 µM
same,MIC50 ratio mutant/WT,[2],1.00
same,MIC50,[2]; [9],0.55 ± 0.014 µM
same,increase in the MIC50 value compared to WT strain,[3],around 1.3 fold
same,MIC50 ratio mutant/WT,[3]; M. tb mc^26230-LipH,1.31
same,MIC50,[3]; M. tb mc^26230-LipH,0.72 ± 0.020 µM
same,MIC50,"[3]; Mycobacterium tuberculosis, M. tb mc^26230-LipH, read-out: MIC50",0.72 ± 0.02 µM
same,increase in MIC50 value compared to WT strain,[4],2.2 fold
same,MIC50 ratio mutant/WT,[4]; M. tb mc^26230-HsaD,2.18
same,MIC50,[4]; M. tb mc^26230-HsaD,1.20 ± 0.026 µM
same,MIC50,"[4]; Mycobacterium tuberculosis, M. tb mc^26230-HsaD, read-out: MIC50",1.2 ± 0.026 µM
same,MIC50 ratio mutant/WT,[5],0.98
same,MIC50,[5]; [9],0.54 ± 0.009 µM
same,MIC50 ratio mutant/WT,[6],0.95
same,MIC50,[6]; [9],0.52 ± 0.012 µM
same,MIC50 ratio mutant/WT,[7],1.00
same,MIC50 ratio mutant/WT,[8],0.95

# — PMC5603573, “Cyclipostins and Cyclophostin analogs as promising compounds in the fight against tuberculosis” (Scientific Reports, 2017)
